pIC50: −log10 of the molar value. Several values for one entry are separate records, joined by “and”; a condition that tells them apart may be missing. Equal values may be shown once. Entries after “also recorded” stand apart in the source; their conditions may differ.
How the values were obtained:
βTC3 cells = test: Insulin release from βTC3 cells by radioimmunoassay; assay type: cell-based, Mus musculus; conditions: 16.7 mM glucose; for Effect on glucose induced insulin secretion (in words): 2 hr incubation; for Insulin secretion, % of the cellular insulin content / Insulin secretion, % of the insulin content of the cells: 2 hr
Protocol: The cultured cells are starved for glucose in Hepes buffered Krebs-Ringer solution for 1 hr. Subsequently, 16.7 mM glucose and the potential phosphodiesterase inhibitors are added to the cells in Hepes buffered Krebs-Ringer solution and the cells are incubated for 2 additional hr. Each condition is assayed in triplicate. Insulin content of the supernatant after centrifugation, and of the cells after acid extraction, is determined by a radioimmunoassay. Control samples are treated with no potential inhibitor compound or, for control or calibration purposes, with compounds that will inhibit other PDE isozymes but that are known to lack PDE1C inhibitory activity or, for examining glucose-independent effects of potential inhibitor compound alone.
Cell Culture, treatments and measurements of insulin secretion. βTC3 cells were cultured as described and early passages were maintained (D'Ambra, R., Surana, M., Efrat, S., Starr, R. G., and Fleischer, N. (1990) Endocrinology 126, 2815-2822). For measurements of insulin secretion cells were plated onto a 12-well culture dishes 3-4 days, and refed 16 hr, prior to the assay. On the experiment day, cells were washed in Hepes-buffered Krebs-Ringer solution, and incubated in this glucose-free solution for 1 hr. Subsequently, 16.7 mM glucose and, when relevant, PDE inhibitors were added to the cells in Hepes-buffered Krebs-Ringer solution and the cells were incubated for 2 additional hr. Each condition was assayed in triplicates. Insulin content of the supernatant after centrifugation, and of the cells after acid extraction, was determined by a radioimmunoassay as described (D'Ambra, R., Surana, M., Efrat, S., Starr, R. G., and Fleischer, N. (1990) Endocrinology 126, 2815-2822).
Cyclic nucleotide phosphodiesterase inhibitors that augment insulin secretion were identified using used βTC3 insulinoma cells. For measurements of insulin secretion cells were plated onto a 12-well culture dishes 3-4 days, and refed 16 hr, prior to the assay. On the experiment day, cells were washed in Hepes-buffered Krebs-Ringer solution, and incubated in this glucose-free solution for 1 hour. Subsequently, 16.7 mM glucose and, when relevant, phosphodiesterase inhibitors were added to the cells in Hepes-buffered Krebs-Ringer solution and the cells were incubated for 2 additional hours. Each condition was assayed in triplicates. Insulin content of the supernatant after centrifugation, and of the cells after acid extraction, was determined by a radioimmunoassay.

[1] = test system: soluble PDE activities of βTC3 cells; test: Overall PDE activity in inhibitor-treated βTC3 cells; assay type: cell-based; conditions: Mus musculus
Text: An estimate for the ability of the inhibitors to permeate and inhibit PDEs within cells was provided by measurements of overall PDE activity in inhibitor-treated cells. These measurements provide an underestimate of the in vivo effects of the inhibitors due to inhibitor dilution, degradation, and release of inhibitor bound to PDEs, that occur during extraction, and are more pronounced in particulate fractions.

PDE1C of βTC3 cells = PDE1C of βTC3 cells (Mus musculus, UniProt Q64338); test: cAMP PDE activity of mono-Q FPLC peak I (PDE1C) of βTC3 cells; assay type: biochemical; conditions: for pIC50: 1 μM cAMP substrate, average ± standard deviation, read-out: IC50 values Peak I PDE1
PDE1C of βTC3 cells, sequence (Q64338 151-528 limits assumed): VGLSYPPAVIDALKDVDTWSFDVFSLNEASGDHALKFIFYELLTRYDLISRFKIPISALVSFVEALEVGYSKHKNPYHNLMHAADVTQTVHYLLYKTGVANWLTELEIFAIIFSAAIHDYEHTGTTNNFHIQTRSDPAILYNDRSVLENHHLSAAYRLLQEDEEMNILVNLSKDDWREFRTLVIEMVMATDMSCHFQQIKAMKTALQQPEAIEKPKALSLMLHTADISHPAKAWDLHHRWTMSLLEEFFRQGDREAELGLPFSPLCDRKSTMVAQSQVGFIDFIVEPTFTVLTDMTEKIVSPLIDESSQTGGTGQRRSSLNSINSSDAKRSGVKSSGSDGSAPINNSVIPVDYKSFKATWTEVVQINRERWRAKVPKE
Protocol: (§1) Mono-Q-FPLC fractionation of PDE activities. Cells were scraped and homogenized in a buffer containing 50 mM Tris 7.5, 250 mM sucrose, 5 mM MgCl2, 0.2 μg/ml aprotinin, leupeptin and pepstatin, and 1 mM 4-(2-aminoethyl)benzenesulfonyl fluoride. Following a 30 min 150,000 g centrifugation, the supernatant was loaded onto a Pharmacia Mono-Q anion exchange column and PDE activities were fractionated by FPLC along a two step salt gradient. Column buffers were (A) 50 mM Tris 7.5 and (B) 50 mM Tris 7.5, 0.5 M NaCl. The gradient consisted of a 10 min increase to 0.2 M NaCl (20% B), and a 90 min increase to 0.5 M NaCl (100% B). One ml fractions were collected.
(§2) PDE assays and kinetic measurements. PDE assays were performed in duplicate as described (40). Analysis and plotting of kinetic data was performed by using the computer program kaleidagraph. The contributions of the high and low affinities cGMP PDEs of peak I to total PDE activity of this peak at a given substrate concentration were calculated using the formula: […]

[2] = test system: cGMP PDE activities of peak I (PDE1C and cGMP-specific PDE); test: cGMP PDE activity of mono-Q FPLC peak I of βTC3 cells; assay type: biochemical, Mus musculus; conditions: 50 μM 8 MM-IBMX
Protocol: as §1, §2

PDE1C = conditions: unlike PDE1A and 1B; cited from earlier work
[3] = test system: glucose induced insulin secretion; conditions: Parker et al. 1995; cited from earlier work
involved PDE families = conditions: cited from earlier work
PDE3 = conditions: Beavo 1988; read-out: IC50 for inhibition of PDE3; cited from earlier work
Peak III PDE4 = test: cAMP PDE activity of mono-Q FPLC peak III of βTC3 cells; assay type: biochemical, Mus musculus; conditions: 2.5 μM rolipram, substrate cAMP 1 μM
Protocol: as §1, §2

Structure (SMILES): CCCCOc1cc(CC2CNC(=O)N2)ccc1OC (stereo not shown) [RO20-1724, 4-(3-butoxy-4-methoxybenzyl)-2-imidazolidinone]
- Effect on glucose induced insulin secretion (in words) (βTC3 cells): limited effect; also recorded: did not
- Insulin secretion, % of the cellular insulin content (βTC3 cells; inhibitor 0.2 mM): 9.6%

Structure (SMILES): COCc1nc2c([nH]1)c(=O)n(C)c(=O)n2CC(C)C [8 MM-IBMX, 8-methoxymethyl-1-methyl-3-(2-methylpropyl)xanthine]
- inhibition at 500 µM ([1]; inhibitor applied to cells at 0.5 mM, read-out: Inhibition of soluble cGMP PDE activities in inhibitor-treated cells): 30%
- pIC50 (PDE1C of βTC3 cells): 5.12
- inhibition at 50 µM (PDE1C of βTC3 cells; 50 μM 8 MM-IBMX, substrate cAMP 0.5 μM): 80%
- Effect on glucose induced insulin secretion (in words) (βTC3 cells): strongly augmented insulin secretion; also recorded: dose dependent augmentation of insulin secretion
- Effect on glucose induced insulin secretion (in words) (βTC3 cells; listed as 8-methoxymethyl-isobutylmethylxanthine): dose dependent augmentation of insulin secretion
- Insulin secretion, % of the cellular insulin content (βTC3 cells; inhibitor 0.5 mM): 17.2%
- Insulin secretion, % of the insulin content of the cells (βTC3 cells; inhibitor […]): 9.3%
- Inhibition by 8 MM-IBMX, peak I ([2]; substrate cGMP 0.1 μM): 82%
- Inhibition by 8 MM-IBMX, peak I ([2]; substrate cGMP 10 μM): 57%

Structure (SMILES): CCOC(=O)C1=C[C@]2(CC)CCCN3CCc4c(n1c1ccccc41)[C@@H]32 [Vinpocetine, eburnamenine-14-carboxylic acid ethyl ester]
- Sensitivity of PDE1C to inhibitor (in words) (PDE1C): resistant
- pIC50 (PDE1C of βTC3 cells): < 4.00
- Stimulation of glucose induced insulin secretion (in words) [3]: ineffective simulator of glucose induced insulin secretion

Structure (SMILES): COc1cc2c(cc1OC)-c1c/c(=N\c3c(C)cc(C)cc3C)n(C)c(=O)n1CC2 [trequinsin]
- Effect on glucose induced insulin secretion (in words) (βTC3 cells): no effect; also recorded: did not
- Insulin secretion, % of the cellular insulin content (βTC3 cells; inhibitor 30 nM): 7%

Structure (SMILES): CC(C)Cn1c(=O)n(C)c(=O)c2[nH]cnc21 [IBMX, 1-methyl-3-isobutylxanthine]
- Insulin secretion, % of the cellular insulin content (βTC3 cells; inhibitor 0.5 mM): 8% and 18%
- Insulin secretion, % of the cellular insulin content (βTC3 cells; inhibitor 0.5 mM, listed as isobutylmethylxanthine): 15.2%
- IC50 values for the involved PDE families (involved PDE families): low μM range

Structure (SMILES): Cc1[nH]c(=O)c(C#N)cc1-c1ccncc1 [Milrinone, 1,6-dihydro-2-methyl-6-oxo-(3,4′-bipyridine)-5-carbonitrile]
- pIC50 (PDE1C of βTC3 cells): < 4.00
- Effect on glucose induced insulin secretion (in words) (βTC3 cells): did not affect insulin secretion
- pIC50 (PDE3): 6.52

Structure (SMILES): CCCOc1ccccc1-c1nc2nn[nH]c2c(=O)[nH]1 [Zaprinast, zaprinast]
- Sensitivity of PDE1C to inhibitor (in words) (PDE1C): sensitive
- pIC50 (PDE1C of βTC3 cells): 5.35
- Effect on glucose induced insulin secretion (in words) (βTC3 cells): enhanced glucose induced secretion; also recorded: partial stimulatory effects
- Insulin secretion, % of the cellular insulin content (βTC3 cells; inhibitor 0.5 mM): 6.2%

Structure (SMILES): COc1ccc(C2CNC(=O)C2)cc1OC1CCCC1 (stereo not shown) [Rolipram, 4-[3-(cyclopentyloxy)-4-methoxyphenyl]-2-pyrrolidinone]
- inhibition at 15 µM ([1]; inhibitor applied to cells at 15 μM, read-out: Inhibition of soluble cAMP PDE activities in inhibitor-treated cells): 37%
- pIC50 (PDE1C of βTC3 cells): < 4.00
- Insulin secretion, % of the insulin content of the cells (βTC3 cells; over 10^4 fold increase in concentrations, up to 15 μM): 7.9-10.7%
- Inhibition by Rolipram, peak III (Peak III PDE4): 97%
- Inhibition by Rolipram, peak III (Peak III PDE4; listed as rolipram): abolished
